# Test results as given in US5601806A, “Methods for scavenging active oxygen compounds and preventing damage from ultra violet B rays using taurine analogues” (Sogo Pharmaceutical Company Limited, priority 1991, dated 1997).
# Legend:
# [1] = alloxan; cited from earlier work
# [2] = tested on: tyrosinase; assay: Tyrosine oxidation preventing effect (tyrosine oxide polymer production); assay type: biochemical; settings: Ultraviolet rays
# Protocol: In a quartz cell was put 1 ml of L-tyrosine (30 mg/100 ml), 1 ml of a tris buffer solution and 0.9 ml of a test solution (6.25×1/10^2 mol/l-1 mol/l), and the mixture was allowed to stand under radiation from an ultraviolet lamp at 37° C. for 10 minutes. Following this, 0.1 ml of tyrosinase (2000 units/ml) were added thereto, and further irradiated under an ultraviolet lamp at 37° C. for 30 minutes, after which the production of tyrosine oxide polymers was measured at 475 nm.
# [3] = tested on: tyrosinase; assay: as above; assay type: biochemical; settings: Indoors
# [4] = SOD-mimic functions of thiotaurine (xanthine-xanthine oxidase-NBT method); assay type: biochemical
# Text: Experimental method: Measurement of the SOD-mimic functions was done, with slight modifications, according to the Xanthine-xanthine oxidase-nitrobluetetrazolium (NBT) method described in Lipid Peroxide Experiments (edited by N. Kaneda, N. Ueda, Ishiyaku Press, p. 144). The measurement is based on measuring at 560 nm the amount of formazan produced by the reduction of NBT with a superoxide which results from the oxidation of xanthine with xanthine oxidase, and calculating the activation thereof. The modification involved irradiation with UVB ([…], 1.8 J/cm^2, 313 nm) for 5 minutes while simultaneously adding the xanthine oxidase, in order to interrupt the reaction.
# [5] = target: SOD (Bos taurus, UniProt P00442); assay: SOD activating function; assay type: biochemical; settings: read-out: SOD activating function (SOD activation rate)
# Protocol: (§1) Next, a measurement was made of the SOD activating function.
# Method of measurement of SOD activating function
# Test Comp. 0.1 0.1 -- --
# Preincubate 25° C., 10 min.
# UVB radiation, 6.0 mw/cm^2, 5 min. (1.8 J/cm^2)
# (1) System for observing whether the consumption of superoxides by SOD is
# further increased with the test composition.
# (§2) (3) System for inhibiting XOD reaction with SOD. XOD reaction was 20%
# (4) System for a complete, uninhibited XOD reaction.
# The SOD activation rates of the test compositions were calculated using the equation listed as Equation 1 below, and the results shown in Table 3 were obtained. [formula]
# [6] = Reactivity with singlet oxygen, riboflavin (Rf)/h.nu.-system; assay type: biochemical; settings: for thiotaurine reacted with ^1 O2 (decomposition): absence of NaN3, pH 7.8
# Protocol: Fourteen milligrams of thiotaurine and 1.5 mg of riboflavin (Rf) were dissolved in 50 ml of a wing buffer solution (pH 7.8), after which light irradiation (FL20SBRF Toshiba, UVA 0.1 mW/cm^2, UVB 0.1 mW/cm^2, visible light 0.4 mW/cm^2) was initiated in the presence and in the absence of 34 mg of sodium azide (NaN3). After continuously reacting the product from the reactant solution with dansyl chloride, a fluorescent reagent, high-performance liquid chromatography was used for separation and analysis.
# The conditions for the high-performance liquid chromatography were as listed below.
# Mobile phase: 0.1M phosphate buffer solution: THF ([…]): acetonitrile=670:40:350
# The results obtained are shown in FIG. 1 as percentages (%) for the proportions of thiotaurine, hypotaurine and taurine at each hour shown.
# It is assumed that in the Rf/h.nu.-system ^1 O2 is produced according to the formula listed below as Chemical formula 7.
# [7] = Reactivity with ^1 O2 in riboflavin, rose bengal and methylene blue/h.nu.-systems with DABCO; assay type: biochemical; settings: DABCO as quencher
# Text: Therefore, the 3 systems listed below were used in identical experiments.
# 1. Riboflavin/h.nu.-system, 1,4-diazabicyclooctane (DABCO) as ^1 O2 quencher
# 2. Rose bengal/h.nu.-system DABCO as ^1 O2 quencher
# 3. Methylene blue/h.nu.-system DABCO as ^1 O2 eliminator
# [8] = Lipid peroxide production inhibitory effect; assay type: biochemical
# Protocol: Fifty ml of a solution prepared by combining a solution of 12.5 mg of methyl linoleate, 2.5 mg of Rf and 2-70 mg of thiotaurine in ethanol with a wing buffer solution, and the resulting solution was subjected to light irradiation as in Experiment 2. After a determined period of time a sample was recovered, and the lipid peroxides were measured using the Yagi method.
# [9] = Preventing effect on photo-oxidation of methionine by hydroxyl radical; assay type: biochemical; settings: 1 mM thiotaurine, 1 mM methionine, riboflavin, NADH, Fe (II) EDTA, UVA 370 nm
# Protocol: In a quartz cell was placed 1 mM of methionine, riboflavin, NADH and Fe (II) EDTA, and super high pressure mercury lamp rays (UVA 370 nm) were irradiated thereto, thus presenting a control. Next, 1 mM of thiotaurine was added to the same system mentioned above and the reaction was initiated by light irradiation as before, while the two reactions were sequentially followed by HPLC and finally compared.
# These systems, to which the Fe (II) chelate compound and electron donor, NADH, were added in the presence of riboflavin, produced the HO.
# [10] = H2 O2 scavenging function; assay type: biochemical
# Protocol: In a quartz cell were placed 1 mM of thiotaurine and […] of H2 O2, and the change in thiotaurine was measured by HPLC while irradiating with light.
# [11] = Influence of externally applied thiotaurine on UVB rays (erythema, SPF); assay type: in vivo, male Hartley guinea pigs
# Protocol: Thiotaurine was added to a base cream of the composition indicated in Table 5, at concentrations of 5.0% (w/w) and 7.5% (w/w), respectively.
# Experimental method: In this experiment, male Hartley guinea pigs of body weight 230-250 g were used. The back, abdomen and side hair of the guinea pigs was first roughly removed with hair clippers, after which the hair was completely removed with care using a Brown electric shaver. On the morning of the next day, the hair was again removed, the body weights measured, and the groups divided. The UVB radiation was applied in 10 stages of 0.075, 0.1, 0.15, 0.2, 0.3, 0.4, 0.5, 0.6, 0.7, and 0.8. Five minutes prior to irradiation, the base cream was applied to the control area, and the thiotaurine-containing cream preparations were applied to the test area. Then observations were made 2, 4, 6, 8, and 24 hours later to determine the presence of erythema, visually.
# 1; Difficult to determine presence or absence of erythema
# 2; Erythema clearly present but edges unclear
# 3; Erythema clearly present and edges clear
# [12] = Effect on hydrocortisone induced chick embryo cataract; assay type: in vivo, White leghorn chick embryos; settings: HC 0.12 mg/egg
# Protocol: White leghorn chick embryos were incubated in an incubator at a temperature of 37° C. and a humidity of approximately 70%. Then a solution of 0.12 mg of hydrocortisone succinate (HC) in 0.2 ml of purified water was administered through the air chambers of the eggs of the control group and the test group on the 15th day of incubation. Thiotaurine was then given to the test group 2 hours, or 2 and 5 hours, after HC administration.
# The lenses were removed 8 hours after HC administration, and the presence of cataracts was judged according to the criteria listed in Table 8, using the method of Nishikuni, et. al. (Investigative Opthamology and Visual Science, 25, p. 1051, 1984).
# I. Lens was clear and indistinguishable from control.
# IV: Pinhole-sized clear area in an opaque nucleus.
# [13] = Effect on alloxan diabetes; assay type: in vivo, Wistar Imamichi rats; settings: 500 mg/kg oral once a day, 2 weeks
# Protocol: Thiotaurine was orally administered in an amount of 500 mg/kg once a day to Wistar Imamichi rats, for a period of 2 weeks. Three days prior to the last administration of the medicine feeding of the rats was stopped for 16 hours, and alloxan dissolved in chilled physiological saline was intravenously injected at an amount of 75 mg/kg. One hour after the last administration of the medicine, the rats were killed, their blood was obtained, and a measurement was made of the triglycerides and blood sugar in the blood, using the enzyme method.
# [14] = Long-term administration to rats, 180 days; assay type: in vivo; settings: 200 mg/kg every day
# Text: The active ingredient compound according to the present invention, an aminothiosulfonic acid, not only functions as a light shield and as a production inhibitor or scavenger of lipid peroxides and active oxygen, but since it and its decomposition products are structurally similar to compounds which are naturally present in the body including taurine, etc. (C.R. Acad. Sci., Ser. 3, 302 (13) 503-8: Presence of Large Quantities of Thiotaurine and Hypotaurine in the Tissues of Riftia pachyptila), its toxicity is extremely low making it a safe substance.
# [15] = in vivo; settings: rat, SD male and female rats, oral
# [16] = tested on: bacteria; assay type: cell-based; settings: coexistence or non-coexistence with S9Mix
# [17] = Primary skin irritation test; assay type: in vivo; settings: rabbits
# Protocol: (§3) In addition, the result was determined to be negative in both a primary skin irritation test and an eye irritation test using rabbits.
# [18] = design: species or system rabbits; settings: rabbit, in vivo
# Protocol: as §3
# [19] = tested on: XOD; assay: Inhibition of XOD reaction by SOD (system (3) of SOD activating method); assay type: biochemical; settings: SOD 0.1 ml
# Text: as §1, §2
# [20] = applied externally to the skin; cited from earlier work
# [21] = alloxan 75 mg/kg i.v., P < 0.05 vs control group
# Chain of SOD (P00442 whole entry): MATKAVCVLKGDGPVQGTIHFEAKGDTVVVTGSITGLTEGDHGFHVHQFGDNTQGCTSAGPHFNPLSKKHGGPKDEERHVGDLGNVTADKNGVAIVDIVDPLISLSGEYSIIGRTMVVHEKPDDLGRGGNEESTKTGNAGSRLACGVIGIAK
compound,measurement,setting,value
catalase,symptoms of diabetes,[1],suppressed
N=C(N)NCCS(=O)(O)=S [thiotaurocyamine],Inhibition rate (tyrosine oxidation),[2]; 1 mol/l,96.6%
same,Inhibition rate (tyrosine oxidation),[2]; 1.25 × 10^-1 mol/l,88.2%
same,Inhibition rate (tyrosine oxidation),[2]; 2.5 × 10^-1 mol/l,92.8%
same,Inhibition rate (tyrosine oxidation),[2]; 5 × 10^-1 mol/l,92.4%
same,Inhibition rate (tyrosine oxidation),[2]; 6.25 × 10^-2 mol/l,78.0%
same,Inhibition rate (tyrosine oxidation),[3]; 1 mol/l,91.5%
same,Inhibition rate (tyrosine oxidation),[3]; 1.25 × 10^-1 mol/l,36.8%
same,Inhibition rate (tyrosine oxidation),[3]; 2.5 × 10^-1 mol/l,61.7%
same,Inhibition rate (tyrosine oxidation),[3]; 5 × 10^-1 mol/l,87.7%
same,Inhibition rate (tyrosine oxidation),[3]; 6.25 × 10^-2 mol/l,12.8%
"NCCS(=O)(O)=S [thiotaurine, Aminoethyl thiosulfonate]",Superoxide production inhibition rate,[4]; 10^-2 M/reaction solution,34.4%
same,Superoxide production inhibition rate,[4]; 10^-3 M/reaction solution,34.7%
same,Superoxide production inhibition rate,[4]; 10^-4 M/reaction solution,43.2%
same,Superoxide production inhibition rate,[4]; 10^-5 M/reaction solution,35.7%
same,Superoxide production inhibition rate,[4]; 10^-6 M/reaction solution,47.0%
same,Superoxide production inhibition rate,[4]; 10^-7 M/reaction solution,34.7%
same,activation at 10000 µM,[5]; 10^-2 M/reaction solution,65.8%
same,activation at 1000 µM,[5]; 10^-3 M/reaction solution,32.1%
same,activation at 100 µM,[5]; 10^-4 M/reaction solution,29.6%
same,activation at 10 µM,[5]; 10^-5 M/reaction solution,14.3%
same,activation at 1 µM,[5]; 10^-6 M/reaction solution,1.6%
same,thiotaurine reacted with ^1 O2 (decomposition),[6]; 2 hours,40%
same,thiotaurine reacted with ^1 O2 (decomposition),[6]; 6 hours,90%
same,thiotaurine remaining,"[6]; 6 hours, presence of NaN3 (^1 O2 quencher), pH 7.8",approximately 85%
same,reaction with ^1 O2,[7],reacts with ^1 O2 in all three systems
same,prevention of production of lipid peroxides,"[8]; 2.8×1/10^4 M, after 7.5 hours, 280 µM",approximately 50%
same,prevention of production of lipid peroxides,"[8]; 4×1/10^3 M, 4000 µM",~100%
same,inhibition of methionine oxidation with HO.,[9],"inhibits the methionine oxidation with HO., and has a scavenging effect against hydroxy radicals"
same,"oxidation of thiotaurine to taurine and hypotaurine with H2 O2, time","[10]; light irradiation, 1 mM thiotaurine",about 3 hours
same,reaction with H2 O2,[10]; no light irradiation,did not react at all
same,SPF value,"[11]; 5% (w/w) cream, 2 hr post-irradiation",3.6
same,SPF value,"[11]; 5% (w/w) cream, 4 hr post-irradiation",3.6
same,SPF value,"[11]; 5% (w/w) cream, 6 hr post-irradiation",3.8
same,SPF value,"[11]; 5% (w/w) cream, 8 hr post-irradiation",4.1
same,SPF value,"[11]; 5% (w/w) cream, 24 hr post-irradiation",5.0
same,SPF value,"[11]; 7.5% (w/w) cream, 2 hr post-irradiation",4.4
same,SPF value,"[11]; 7.5% (w/w) cream, 4 hr post-irradiation",4.3
same,SPF value,"[11]; 7.5% (w/w) cream, 6 hr post-irradiation",4.3
same,SPF value,"[11]; 7.5% (w/w) cream, 8 hr post-irradiation",4.3
same,SPF value,"[11]; 7.5% (w/w) cream, 24 hr post-irradiation",5.7
same,Determination: lenses of grade II (faint opaque ring),[12]; 0.5 mg × 1 time/egg,6/8
same,Determination: lenses of grade III (distinct opaque ring),[12]; 0.5 mg × 1 time/egg,2/8
same,Determination: lenses of grade I (clear),[12]; 1.0 mg × 1 time/egg,2/8
same,Determination: lenses of grade II (faint opaque ring),[12]; 1.0 mg × 1 time/egg,2/8
same,Determination: lenses of grade III (distinct opaque ring),[12]; 1.0 mg × 1 time/egg,4/8
same,Determination: lenses of grade I (clear),[12]; 1.0 mg × 2 times/egg,4/8
same,Determination: lenses of grade II (faint opaque ring),[12]; 1.0 mg × 2 times/egg,4/8
same,Determination: lenses of grade I (clear),[12]; 2.0 mg × 2 times/egg,4/8
same,Determination: lenses of grade II (faint opaque ring),[12]; 2.0 mg × 2 times/egg,4/8
same,"increase of glucose suppressed to, compared with control",[13],65%
same,"increase of triglycerides suppressed to, compared with control",[13],70%
same,Blood sugar,[13]; [21],769.1 ± 120.3 mg/dL
same,Triglyceride,[13]; [21],363.8 ± 38.2 mg/dL
same,Blood sugar relative to control group (100),[13]; control = 100,65
same,Triglyceride relative to control group (100),[13]; control = 100,70
same,change in the body weight curve,[14],no change in the body weight curve
same,deaths,[14],no deaths at all
same,LD50,[15],> 2000 mg/kg
same,mutagenicity (Ames Test),[16],no mutagenecity was observed
same,primary skin irritation,[17],negative
same,eye irritation,[18],negative
superoxide dismutase [SOD],XOD reaction inhibited by SOD,[19],20%
same,amount of lipid peroxides in the epidermis due to UV rays,[20],lowering the amount of lipid peroxides (LPO) in the epidermis due to UV rays
same,symptoms of diabetes,[1],suppressed
